Assay results: patent publication US8039668B2, “Naphthalene-based inhibitors of anti-apoptotic proteins” (Burnham Institute for Medical Research, priority 2008, dated 2011)
Read-outs that look alike come from different tables or passages of the source.

What was measured:
[1] = biological target: T1, BCL-XL (Homo sapiens, UniProt Q07817); test: Competitive fluorescence polarization assay (FPA), Bak BH3 peptide; assay type: binding; design: 100 nM GST-BCL-XL ΔTM protein; conditions: read-out: IC50 FPA Bcl-XL
Protocol: For competitive binding assays, 100 nM GST-BCL-XL ΔTM protein was preincubated with the tested compound at varying concentrations in 47.5 μL PBS (pH=7.4) in 96-well black plates at room temperature for 10 min, then 2.5 μL of 100 nM FITC-labeled Bak BH3 peptide was added to produce a final volume of 50 μL. The wild-type and mutant Bak BH3 peptides were included in each assay plate as positive and negative controls, respectively. […] IC50 was determined by fitting the experimental data to a sigmoidal dose-response nonlinear regression model (SigmaPlot 10.0.1, Systat Software, Inc., San Jose, Calif., USA). Data reported are mean of three independent experiments±standard error (SE). […] Fluorescence polarization was measured after 10 min.
Target sequence in this assay (Q07817 1-209 limits assumed): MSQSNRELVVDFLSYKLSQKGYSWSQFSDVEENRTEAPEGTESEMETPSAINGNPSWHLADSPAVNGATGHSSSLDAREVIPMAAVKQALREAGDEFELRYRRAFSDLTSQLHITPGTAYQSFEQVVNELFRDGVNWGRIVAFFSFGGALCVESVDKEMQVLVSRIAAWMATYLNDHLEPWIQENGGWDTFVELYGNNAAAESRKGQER

[2] = biological target: Bcl-2 (Homo sapiens, UniProt P10415); test: Competitive fluorescence polarization assay (FPA), Bim BH3 peptide; assay type: binding
Sequence of Bcl-2 (P10415 whole entry): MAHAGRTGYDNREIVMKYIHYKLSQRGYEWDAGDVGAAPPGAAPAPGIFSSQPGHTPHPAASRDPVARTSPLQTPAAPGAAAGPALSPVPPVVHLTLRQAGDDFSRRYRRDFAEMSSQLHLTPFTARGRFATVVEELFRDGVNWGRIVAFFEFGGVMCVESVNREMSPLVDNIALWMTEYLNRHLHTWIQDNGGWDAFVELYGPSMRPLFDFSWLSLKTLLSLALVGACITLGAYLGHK

[3] = test system: BP3 human B-cell lymphoma cell line; test: Annexin V-FITC and propidium iodide assay; assay type: cell-based; conditions: Homo sapiens, B-cell, Table 3, Annexin V-FITC and propidium iodide assay, read-out: EC50 BP3
[4] = test system: B6Bcl-2 transgenic mice; conditions: for Tox: Bcl-2 transgenic mouse, single ip injection 72 μmol/kg
Protocol: Transgenic mice expressing BCL-2 have been described as the B6 line. The BCL-2 transgene res a minigene version of a t(14;18) translocation in which the human BCL-2 gene is fused with the immunoglobulin heavy-chain (IgH) locus and associated IgH enhancer. The transgene was propagated on the Balb/c background.
After 24 hours, B6BCL2 mice were sacrificed by intraperitoneal injection of lethal dose of Avertin. Spleen was removed and weighed. […] Spleen tissue was fixed in z-FIX for 3 days and rinsed in PBS, and saved for histological analysis of spleen (H&E staining and TUNEL assay).

[5] = test system: Bax/Bak double knockout mouse embryonic fibroblast cells (MEF/DKO); test: FITC-Annexin V/PI cytotoxicity in Bax/Bak double knockout cells; assay type: cell-based; conditions: 10 μM
Protocol: MEF/WT and MEF/DKO cells were seeded in 24-well plate at a seeding density of half a million per well (in 1 ml of DMEM medium supplemented by 10% FCS). […] On the following day, floating cells were pooled with adherent cells harvested after brief incubation with 0.25% Trypsin/EDTA solution (Gibco/In-Vitrogen Inc.). Cells were centrifuged and supernatant was discarded, and cell pellet was re-suspended with 0.2 ml of Annexin-V binding buffer, followed by addition of 1 μl Annexin-FITC and 1 μl PI (propidium iodide). The percentage of viable cells was determined by a 3-color FACSort instrument and data analyzed by Flow-Jo program, scoring Annexin V-negative, PI-negative as viable cells.

[6] = test system: human lymphoma RS11846 cell line; test: Apoptosis, Annexin V-FITC and propidium iodide assay; assay type: cell-based; conditions: Homo sapiens
Protocol: The apoptotic activity of the compounds against RS11846 cells was assessed by staining with Annexin V- and propidium iodide (PI). Lymphoma cell line, RS11846, was cultured in RPMI 1640 medium (Mediatech Inc., Herndon, Va. 20171) containing 10% fetal bovine serum (Mediatech Inc., Herndon, Va. 20171) and Penicillin/Streptomycin (Mediatech Inc., Herndon, Va. 20171). […] The percentage of viable cells was determined by FITC-Annexin V- and propidium iodide (PI)-labeling, using an Apoptosis Detection kit (BioVision Inc.), and analyzing stained cells by flow cytometry (FACSort; Bectin-Dickinson, Inc.; Mountain View, Calif.). Cells that were annexin-V-negative and PI-negative were considered viable.

[7] = Liver microsomal stability; assay type: in vitro ADME, rat; conditions: Table 6; rat liver microsomes, 1 h
Source text: Liver Microsomal Stability.

[8] = biological target: Mcl-1 (Homo sapiens, UniProt Q07820); test: Competitive fluorescence polarization assay (FPA), Bim BH3 peptide; assay type: binding
Sequence of Mcl-1 (Q07820 whole entry): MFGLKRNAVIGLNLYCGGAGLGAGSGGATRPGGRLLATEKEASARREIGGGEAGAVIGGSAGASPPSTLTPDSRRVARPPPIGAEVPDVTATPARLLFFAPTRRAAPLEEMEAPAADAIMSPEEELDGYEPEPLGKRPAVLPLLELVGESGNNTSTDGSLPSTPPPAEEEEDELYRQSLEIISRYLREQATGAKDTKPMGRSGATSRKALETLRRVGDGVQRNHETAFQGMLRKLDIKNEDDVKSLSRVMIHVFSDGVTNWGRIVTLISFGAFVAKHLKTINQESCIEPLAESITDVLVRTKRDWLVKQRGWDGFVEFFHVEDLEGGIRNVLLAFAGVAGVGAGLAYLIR

[9] = test system: PC3ML cells; test: Cell viability, ATP-LITE assay; assay type: cell-based, human; conditions: Homo sapiens, PC3-ML
Protocol: (§1) The activity of the compounds against human cancer cell lines (PC3ML, H460, H1299, RS11846) were assessed by using the ATP-LITE assay (PerkinElmer). All cells were seeded in either F12 or RPMI1640 medium with 5 mM L-glutamine supplemented with 5% fetal bovine serum (Mediatech Inc.), penicillin and streptomycin (Omega). For maintenance, cells were cultured in 5% FBS. Cells plated into 96 well plates at varying initial densities depending on doubling time. H460 and H1299 plated at 2000 cells/well, A549 and PC3 at 3000 cells/well, and RS118456S at 10,000 cells/well. Compounds were diluted to final concentrations with 0.1% DMSO. Prior to dispensing compounds onto cells, fresh 5% media was placed into wells. Administration of compounds occurred 24 hours after seeding into the fresh media. Cell viability was evaluated using ATP-LITE reagent (PerkinElmer) after 72 hours of treatment. Data were normalized to the DMSO control-treated cells using Prism version 5.01 (Graphpad Software).

[10] = test system: H1299 cell line; test: Cell viability, ATP-LITE assay; assay type: cell-based, human; conditions: Homo sapiens
Protocol: as §1

[11] = biological target: T1, BCL-XL; test: 1D 1H-NMR binding assay; design: key to 1D-^1H NMR: +++, Very Active; ++, Active; +, Mild; −, Weak; conditions: for 1D-^1H NMR: BCL-XL 25 μM, compound 200 μM
Protocol: By observing the aliphatic region of the spectra, binding could be readily detected due to chemical shift changes in active site methyl groups of Ile, Leu, Thr, Val or Ala (region between −0.8 and 0.3 ppm). All experiments were performed with a 600 MHz spectrometer Bruker Avance 600 equipped with four rf channels and z-axis pulse-field gradients.
Target sequence in this assay (Q07817 whole entry): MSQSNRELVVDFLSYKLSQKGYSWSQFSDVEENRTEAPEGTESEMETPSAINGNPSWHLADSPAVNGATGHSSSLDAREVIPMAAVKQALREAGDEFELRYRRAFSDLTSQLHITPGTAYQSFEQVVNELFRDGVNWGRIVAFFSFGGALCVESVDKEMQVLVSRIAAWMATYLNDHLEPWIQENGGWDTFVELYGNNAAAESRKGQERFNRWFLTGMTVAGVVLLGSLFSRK

[12] = test system: H460 human lung cell line; test: Cell viability, ATP-LITE assay; assay type: cell-based; conditions: for EC50: Homo sapiens
Protocol: as §1

[13] = Plasma stability; assay type: in vitro ADME, rat; conditions: Table 6; rat plasma, 1 h
Protocol: Plasma Stability. A 20 μL aliquot of a 10 mM solution in DMSO of the test compound was added to 2.0 mL of heparinized rat plasma (Lampire, P1-150N) to obtain a 100 μM final solution. The mixture was incubated for 1 h at 37.5° C. Aliquots of 100 μL were taken (0, 30 min, 1 h) and diluted with 200 μL of MeOH containing internal standard.

[14] = biological target: T2, Bfl-1 (Homo sapiens, UniProt Q16548); test: Competitive fluorescence polarization assay (FPA); assay type: binding
T2 sequence (Q16548 1-175): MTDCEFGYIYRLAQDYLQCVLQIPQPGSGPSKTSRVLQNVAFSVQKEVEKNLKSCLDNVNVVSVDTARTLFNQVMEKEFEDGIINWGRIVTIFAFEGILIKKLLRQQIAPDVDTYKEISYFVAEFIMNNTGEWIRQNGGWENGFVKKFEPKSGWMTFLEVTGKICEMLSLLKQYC

[15] = biological target: T1, BCL-XL; test: Isothermal titration calorimetry (ITC); assay type: binding; conditions: vs Apogossypol
Protocol: Titrations were performed using a VP-ITC or ITC200 calorimeter from Microcal (Northampton, Mass.). BCL-XL was used at concentrations between 25 and 100 μM in 20 mM sodium phosphate buffer (pH 7.4) and 5-10% DMSO. Titrants were used at concentrations 10-15 fold of that of the protein in the same buffer. Titrations were carried out at 25° C. Data were analyzed using Microcal Origin software provided by the ITC manufacturer (Microcal, Northampton, Mass.).
Target sequence in this assay (Q07817 whole entry): as the sequence (Q07817 whole entry) above

[16] = test system: RS11846 cell line; test: Cell viability, ATP-LITE assay; assay type: cell-based; conditions: Homo sapiens, read-out: RS11846 EC50 (ATP-LITE assay)
Protocol: as §1

[17] = Table 3, Annexin V-FITC and propidium iodide assay, heading: EC50 RS11846, read-out: EC50 RS11846
[18] = Table 3, ATP-LITE assay, heading: EC50 PC3ML, read-out: EC50 PC3ML
[19] = NCI-H1299, heading: EC50 H1299, Table 3, ATP-LITE assay, read-out: EC50 H1299
[20] = NCI-H460, Table 3, ATP-LITE assay, read-out: EC50 H460

Compound `Cc1cc2c(C(=O)NCCc3cccc(Cl)c3)c(O)c(O)cc2c(O)c1-c1c(C)cc2c(C(=O)NCCc3cccc(Cl)c3)c(O)c(O)cc2c1O` [Compound 8p, N^5,N^5′-bis(3-chlorophenethyl)-1,1′,6,6′,7,7′-hexahydroxy-3,3′-dimethyl-2,2′-binaphthyl-5,5′-dicarboxamide] has an IC50 [1] of 6300 nM, an IC50 [2] of 4400 nM and an EC50 [3] of 410 nM. For the same compound, the Tox [4] was 4+, the “percentage of maximum reduction in spleen weight (maximal biological activity)” value ([4]; single ip 72 μmol/kg, maximum shrinkage no more than 50%) was 85-95% and the spleen weight reduction ([4]; single mouse, single ip 72 μmol/kg) was “more than 40%”. For the same compound, the MEF/DKO cells killed [5] was 20-35%, the EC50 [6, 17] was 4600 nM and the “Microsomal Stability (T = 1 h)” value [7] was 90%. The IC50 [8] was 3200 nM, the EC50 [9, 18] was 3200 nM and the EC50 [10, 19] was 7800 nM. For the same compound, the “1D-^1H NMR” value ([11]; Table 3) was “+++” and the EC50 [12, 20] was 990 nM.
For `Cc1cc2c(C(=O)NCCc3ccccc3)c(O)c(O)cc2c(O)c1-c1c(C)cc2c(C(=O)NCCc3ccccc3)c(O)c(O)cc2c1O` [Compound 8n, 1,1′,6,6′,7,7′-hexahydroxy-3,3′-dimethyl-N^5,N^5′-diphenethyl-2,2′-binaphthyl-5,5′-dicarboxamide], the IC50 [1] was 800 nM, the IC50 [2] was 150 nM and the “Plasma stability (T = 1 h)” value [13] was 63%. The “Microsomal Stability (T = 1 h)” value [7] was 60%, the IC50 [8] was 300 nM and the “1D-^1H NMR” value ([11]; Table 3) was “++”.
In the case of `Cc1cc2c(C(=O)NC3Cc4ccccc4C3)c(O)c(O)cc2c(O)c1-c1c(C)cc2c(C(=O)NC3Cc4ccccc4C3)c(O)c(O)cc2c1O` [Compound 8s, N^5,N^5′-bis(2,3-dihydro-1H-inden-2-yl)-1,1′,6,6′,7,7′-hexahydroxy-3,3′-dimethyl-2,2′-binaphthyl-5,5′-dicarboxamide], the IC50 [1] is reported as 850 nM, the IC50 [2] is reported as 700 nM and the EC50 ([3]; heading: EC50 BP3) is reported as 1100 nM. For the same compound, the EC50 [6, 17] was 4100 nM, the IC50 [8] was 350 nM and the EC50 [9, 18] was 3000 nM. The EC50 [10, 19] was 7100 nM, the “1D-^1H NMR” value ([11]; Table 3) was “++” and the IC50 [14] was 670 nM. For the same compound, the EC50 [12, 20] was 940 nM.
For `Cc1ccc(CC(=O)c2c(O)c(O)cc3c(O)c(-c4c(C)cc5c(C(=O)Cc6ccc(C)cc6)c(O)c(O)cc5c4O)c(C)cc23)cc1` [Compound XII, 1,1′-(1,1′,6,6′,7,7′-hexahydroxy-3,3′-dimethyl-2,2′-binaphthyl-5,5′-diyl)bis(2-p-tolylethanone)], the EC50 ([6]; read-out: RS11846 EC50 (Annexin V- and propidium iodide assay), Table 9) was 3000 to 5500 nM, the “times more potent than Apogossypol, ITC Bcl-XL” value [15] was 40 and the EC50 ([9]; read-out: PC3ML EC50, Table 9) was 1900 to 4600 nM. For the same compound, the EC50 ([10]; NCI-H1299, read-out: H1299 EC50) was 1700 nM, the “1D ^1H-NMR Binding Assay (BCL-XL)” value ([11]; Table 9) was “++” and the EC50 ([12]; NCI-H460, read-out: H460 EC50) was 820 nM. For the same compound, the “times more potent than Apogossypol, H460” value ([12]; vs Apogossypol) was 4-5 and the EC50 [16] was 2200 nM.
For `Cc1cc(C)c(CNC(=O)c2c(O)c(O)cc3c(O)c(-c4c(C)cc5c(C(=O)NCc6c(C)cc(C)cc6C)c(O)c(O)cc5c4O)c(C)cc23)c(C)c1` [Compound 8j, 1,1′,6,6′,7,7′-hexahydroxy-3,3′-dimethyl-N^5,N^5′-bis(2,4,6-trimethylbenzyl)-2,2′-binaphthyl-5,5′-dicarboxamide], the IC50 [1] was 800 nM, the IC50 [2] was 700 nM and the IC50 [8] was 1100 nM. The “1D-^1H NMR” value ([11]; Table 3) was “++”.
With `Cc1cc2c(CC3CCCC3)c(O)c(O)cc2c(O)c1-c1c(C)cc2c(CC3CCCC3)c(O)c(O)cc2c1O` [Compound 12c, 5,5′-bis(cyclopentylmethyl)-3,3′-dimethyl-2,2′-binaphthyl-1,1′,6,6′,7,7′-hexaol] the signs of toxicity ([4]; 72 μmol/kg and even 120 μmol/kg) was “no significant signs of toxicity”, the Tox [4] was 1+ and the “Plasma stability (T = 1 h)” value [13] was 81%. The EC50 ([6]; Annexin V-FITC and propidium iodide assay, read-out: EC50 RS11846) was 4500 nM, the “Microsomal Stability (T = 1 h)” value [7] was 75% and the EC50 ([9]; ATP-LITE assay, read-out: EC50 PC3ML) was 11200 nM. For the same compound, the EC50 ([10]; NCI-H1299, ATP-LITE assay, read-out: EC50 H1299) was 10900 nM, the “1D-^1H NMR” value ([11]; Table 4) was “+” and the EC50 ([12]; NCI-H460, ATP-LITE assay, read-out: EC50 H460) was 1800 nM.
